“And” between values parts separate entries of the source, which are not always exact repeats. Identical values can stand only once. Blank lines part the entries; values can stand above or below the compound they belong to.
Test system: 616215-338-R-J1-PDC complex spheroids, viability % test/control
Assay: Anticancer human tumor 616215-338-R-J1-PDC patient-derived colon adenocarcinoma cell line growth inhibition [CLK]
Conditions: for viability, T/C: stronger effect = lower value
Excerpt: A high-throughput screen of multi-cell type tumor spheroids was designed to identify active combinations of […] and targeted small molecules. Complex spheroids include a stromal component modeled by human endothelial cells (HUVEC) and fibroblasts modeled by human mesenchymal stem cells (MSCs). The concentration ranges selected for each drug and investigational agent were based upon clinically achievable concentrations if the clinical Cmax of the agent was known.
Compounds. The drugs and investigational agents: cirtuvivint (SM08502; NSC835563), CC-671 (NSC850746), vemurafenib (NSC761431), tapotoclax (NSC804041), sotorasib (NSC818433), adagrasib (NSC831453), MRTX-1133 (NSC836407), BAY2416964 (NSC825713), copanlisib (NSC816437), inavolisib (NSC800729), abemaciclib (NSC768073), osimertinib (NSC779217), entinostat (NSC756642), eltanexor (KPT-8602, NSC794443), venetoclax (NSC766270), ceralasertib (NSC777638), bortezomib (NSC756655), olaparib (NSC753686), talazoparib (NSC767125), alisertib (NSC759677), peposertib (NSC802822), gemcitabine (NSC613327), 5-fluorouracil (NSC19893), SN-38 (NSC673596), oxaliplatin (NSC266046), paclitaxel (NSC125973), and doxorubicin (NSC123127), were obtained from the National Cancer Institute (NCI) Developmental Therapeutics Program Chemical Repository. The FDA-approved anticancer drug set is available from the Developmental Therapeutics Program at https://dtp.cancer.gov/organization/dscb/obtaining/available plates.htm. […] The stock solutions were prepared in dimethyl sulfoxide (DMSO, Sigma-Aldrich, St. Louis, MO, cat. D2650), except for the platinum complexes which were prepared in saline (Quality Biological, Gaithersburg, MD, cat. 114-055-101), at 800-fold the tested concentration and stored at -70 degrees C prior to their use. All drugs and investigational agents were tested over a range starting from a high concentration at or near the clinical Cmax and decreasing in half-log increments. If the clinical Cmax for an agent had not been determined, the highest concentration tested was 10 microM.
Cell Culture. All cells were maintained in an incubator at 37 degrees C and 5% CO2 with 95% humidity. The PDC lines were cultured according to standard operating procedures established by the NCI PDMR. Briefly, all PDCs were thawed and cultured in Matrigel-coated flasks prepared with a working solution of 1X Ham's F-12 nutrient mix, without supplementation (Invitrogen, Waltham, MA, cat. 11765054), 100 U/mL penicillin-streptomycin (Invitrogen, cat. 15140122), and 2.5% Matrigel (Corning Inc., Corning, NY, cat. 354248) for the first three passages. The 947758-054-R-J2-PDC line was cultured in 6B/Colon 1A media, which includes advanced DMEM/F-12 (Thermo Fisher Scientific, cat. 12634028), 10 mM HEPES (Thermo Fisher Scientific, cat. 15630080), 1X GlutaMAX supplement (Thermo Fisher Scientific, cat. 35050061), 0.1 mg/mL primocin (InvivoGen, cat. ant-pm-2), 10% defined fetal bovine serum, heat inactivated (HyClone Laboratories Inc., cat. SH30070.03HI), 1.25 mM N-Acetyl-L-cysteine (Sigma-Aldrich, cat. A9165), 10 mM nicotinamide (Sigma-Aldrich, cat. N0636), 1X B-27 supplement (Thermo Fisher Scientific, cat. 17504044), 1X N-2 supplement (Thermo Fisher Scientific, cat. 17502048), and 10 microM Y-27632 dihydrochloride (Tocris Bioscience, cat. 1254). The 876862-298-R-J1-PDC was cultured in 6E media, which includes all 6B/Colon 1A media components plus 50% L-WRN conditioned media (ATCC, cat. CRL-3276), 50 ng/mL recombinant human EGF recombinant protein (hEGF; Thermo Fisher Scientific, cat. PHG0311), 10 ng/mL recombinant human fibroblast growth factor 10 (hGFG-10; PeproTech, cat. 100-26), 1 ng/mL recombinant human fibroblast growth factor 2 (hFGF-2; PeproTech, cat. 100-18B), and 1 µM prostaglandin E2 (PGE2; Tocris, cat. 2296). The 227483-062-R1-J1-PDC line was cultured in Panc media, containing all 6E components except hFGF-2, with the addition of 500 nM SB-431542 (Selleckchem, cat. S1067) and 10 nM gastrin (Tocris, cat. 3006). […]

[1] = curve of first compound, second compound 0.0316 µM
[2] = curve of first compound, second compound 0.1 µM
[3] = curve of first compound, second compound 0.316 µM
[4] = curve of first compound, second compound 1 µM
[5] = curve of first compound, second compound 3.16 µM
[6] = curve of first compound, second compound 10 µM
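Note: spheroids exposed to agents for 7 days.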
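Throughout, for viability, T/C: 100% = DMSO vehicle wells.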

IC50 [1]: < 31.6 nM
IC50 [2]: < 31.6 nM
IC50 [3]: < 31.6 nM
IC50 [4]: < 31.6 nM
IC50 [5]: < 31.6 nM
IC50 [6]: < 31.6 nM
SMILES: CC(=O)O[C@H]1C(=O)[C@@]2(C)[C@H]([C@H](OC(=O)c3ccccc3)[C@]3(O)C[C@H](OC(=O)[C@H](O)[C@@H](NC(=O)c4ccccc4)c4ccccc4)C(C)=C1C3(C)C)[C@]1(OC(C)=O)CO[C@@H]1C[C@@H]2O + CNC(=O)c1ccc(Nc2nc(OC3CCCC3)c3c(-c4ccc5nc(C)oc5c4)c[nH]c3n2)c(OC)c1
viability, T/C (second compound 0.0316 µM, first compound 0.0316 µM): 35%
viability, T/C (second compound 0.0316 µM, first compound 0.1 µM): 27.8%
viability, T/C (second compound 0.0316 µM, first compound 0.316 µM): 23.3%
viability, T/C (second compound 0.0316 µM, first compound 1 µM): 27%
viability, T/C (second compound 0.0316 µM, first compound 3.16 µM): 30.8%
viability, T/C (second compound 0.0316 µM, first compound 10 µM): 36.2%
viability, T/C (second compound 0.1 µM, first compound 0.0316 µM): 39.9%
viability, T/C (second compound 0.1 µM, first compound 0.1 µM): 37.7%
viability, T/C (second compound 0.1 µM, first compound 0.316 µM): 35.2%
viability, T/C (second compound 0.1 µM, first compound 1 µM): 38.9%
viability, T/C (second compound 0.1 µM, first compound 3.16 µM): 41%
viability, T/C (second compound 0.1 µM, first compound 10 µM): 44.2%
viability, T/C (second compound 0.316 µM, first compound 0.0316 µM): 34.8%
viability, T/C (second compound 0.316 µM, first compound 0.1 µM): 40%
viability, T/C (second compound 0.316 µM, first compound 0.316 µM): 32%
viability, T/C (second compound 0.316 µM, first compound 1 µM): 38.3%
viability, T/C (second compound 0.316 µM, first compound 3.16 µM): 58.5%
viability, T/C (second compound 0.316 µM, first compound 10 µM): 46%
viability, T/C (second compound 1 µM, first compound 0.0316 µM): 45.6%
viability, T/C (second compound 1 µM, first compound 0.1 µM): 53.2%
viability, T/C (second compound 1 µM, first compound 0.316 µM): 56.6%
viability, T/C (second compound 1 µM, first compound 1 µM): 60.6%
viability, T/C (second compound 1 µM, first compound 3.16 µM): 59.5%
viability, T/C (second compound 1 µM, first compound 10 µM): 58.1%
viability, T/C (second compound 3.16 µM, first compound 0.0316 µM): 34.3%
viability, T/C (second compound 3.16 µM, first compound 0.1 µM): 51.5%
viability, T/C (second compound 3.16 µM, first compound 0.316 µM): 63.4%
viability, T/C (second compound 3.16 µM, first compound 1 µM): 63%
viability, T/C (second compound 3.16 µM, first compound 3.16 µM): 72.1%
viability, T/C (second compound 3.16 µM, first compound 10 µM): 63.9%
viability, T/C (second compound 10 µM, first compound 0.0316 µM): 39.5%
viability, T/C (second compound 10 µM, first compound 0.1 µM): 43.2%
viability, T/C (second compound 10 µM, first compound 0.316 µM): 70.7%
viability, T/C (second compound 10 µM, first compound 1 µM): 75%
viability, T/C (second compound 10 µM, first compound 3.16 µM): 62.7%
viability, T/C (second compound 10 µM, first compound 10 µM): 62%

IC50 (curve of compound): > 10000 nM
SMILES: COc1ccc([C@@H](O)c2cc(-c3ncnc4cc(N5CCOCC5)ccc34)c(F)cc2Cl)nn1
viability, T/C (compound 0.0316 µM): 102% and 93.5%
viability, T/C (compound 0.1 µM): 106% and 104%
viability, T/C (compound 0.316 µM): 111% and 108%
viability, T/C (compound 1 µM): 107% and 99.3%
viability, T/C (compound 3.16 µM): 112% and 118%
viability, T/C (compound 10 µM): 77.8% and 78.4%

SMILES: C=CC(=O)Nc1cc(Nc2nccc(-c3cn(C)c4ccccc34)n2)c(OC)cc1N(C)CCN(C)C + CN1CCN(c2cc(C(=O)Nc3cc4cc(-c5cnn(C)c5)ccc4cn3)ccn2)CC1
IC50 [1]: > 300 nM
IC50 [2]: > 300 nM
IC50 [3]: < 0.949 nM
IC50 [4]: < 0.949 nM
IC50 [5]: < 0.949 nM
IC50 [6]: < 0.949 nM
viability, T/C (second compound 0.0316 µM, first compound 0.000949 µM): 104%
viability, T/C (second compound 0.0316 µM, first compound 0.003 µM): 102%
viability, T/C (second compound 0.0316 µM, first compound 0.00949 µM): 93.5%
viability, T/C (second compound 0.0316 µM, first compound 0.03 µM): 103%
viability, T/C (second compound 0.0316 µM, first compound 0.0949 µM): 107%
viability, T/C (second compound 0.0316 µM, first compound 0.3 µM): 107%
viability, T/C (second compound 0.1 µM, first compound 0.000949 µM): 125%
viability, T/C (second compound 0.1 µM, first compound 0.003 µM): 114%
viability, T/C (second compound 0.1 µM, first compound 0.00949 µM): 110%
viability, T/C (second compound 0.1 µM, first compound 0.03 µM): 111%
viability, T/C (second compound 0.1 µM, first compound 0.0949 µM): 97.3%
viability, T/C (second compound 0.1 µM, first compound 0.3 µM): 79.2%
viability, T/C (second compound 0.316 µM, first compound 0.000949 µM): 30.5%
viability, T/C (second compound 0.316 µM, first compound 0.003 µM): 35.5%
viability, T/C (second compound 0.316 µM, first compound 0.00949 µM): 37%
viability, T/C (second compound 0.316 µM, first compound 0.03 µM): 25.2%
viability, T/C (second compound 0.316 µM, first compound 0.0949 µM): 24.5%
viability, T/C (second compound 0.316 µM, first compound 0.3 µM): 20.4%
viability, T/C (second compound 1 µM, first compound 0.000949 µM): 0.17%
viability, T/C (second compound 1 µM, first compound 0.003 µM): 0.18%
viability, T/C (second compound 1 µM, first compound 0.00949 µM): 1.87%
viability, T/C (second compound 1 µM, first compound 0.03 µM): 0.19%
viability, T/C (second compound 1 µM, first compound 0.0949 µM): 0.34%
viability, T/C (second compound 1 µM, first compound 0.3 µM): 1.79%
viability, T/C (second compound 3.16 µM, first compound 0.000949 µM): 0.2%
viability, T/C (second compound 3.16 µM, first compound 0.003 µM): 0.16%
viability, T/C (second compound 3.16 µM, first compound 0.00949 µM): 0.17%
viability, T/C (second compound 3.16 µM, first compound 0.03 µM): 0.17%
viability, T/C (second compound 3.16 µM, first compound 0.0949 µM): 1.76%
viability, T/C (second compound 3.16 µM, first compound 0.3 µM): 1.73%
viability, T/C (second compound 10 µM, first compound 0.000949 µM): 0.28%
viability, T/C (second compound 10 µM, first compound 0.003 µM): 0.23%
viability, T/C (second compound 10 µM, first compound 0.00949 µM): 0.25%
viability, T/C (second compound 10 µM, first compound 0.03 µM): 0.24%
viability, T/C (second compound 10 µM, first compound 0.0949 µM): 0.22%
viability, T/C (second compound 10 µM, first compound 0.3 µM): 0.24%

IC50 (curve of compound): > 10000 nM
SMILES: CC1COCCN1c1cc(C2(S(C)(=N)=O)CC2)nc(-c2ccnc3[nH]ccc23)n1 (stereo not drawn)
viability, T/C (compound 0.0316 µM): 94.9% and 102%
viability, T/C (compound 0.1 µM): 107% and 96.5%
viability, T/C (compound 0.316 µM): 97.7% and 96.1%
viability, T/C (compound 1 µM): 99.8% and 94.2%
viability, T/C (compound 3.16 µM): 105% and 106%
viability, T/C (compound 10 µM): 78.6% and 92.2%
